Columns and labels:
[1] = tested on: kidney fibrosis after FA injection in mice; experiment: Enalapril treatment in folic acid (FA) nephropathy model of kidney fibrosis (histology, qRT-PCR); assay type: in vivo, mouse; conditions: day 14
Description: Conversely, to test if the markers reflect recovery from fibrosis interventions on the renin-angiotensin system were used.
Mice were sacrificed at 1, 2, 3, 7 and 14 days following administration. […] All mice were sacrificed at 14 days.
(§1) Formalin fixed, paraffin embedded kidney sections were Masson Trichrome's stained and evaluated by a renal pathologist under a light microscope in blinded fashion relative to sample group. Percent area of fibrosis relative to the total section area was evaluated. Sirius red staining of the […] sections was performed at the Michigan State University Investigative Histopathology Laboratory.
(§2) Total RNA was extracted from frozen kidney tissue using TRIzol reagent (Invitrogen). Following RNA concentration measurement by NanoDrop spectrophotometer (Thermo Fischer Scientific), 1 μg RNA was used for cDNA preparation using QuantiTect Reverse Transcription Kit from Qiagen (Valencia, Calif.). qRT-PCR using QuantiFast SYBR Green PCR Kit (Qiagen) was performed in 384-well plates on an Applied Biosystems 7900HT Fast Real-Time PCR System instrument with the following temperature profile: 3 min enzyme activation at 95° C. followed by 40 cycles of 95° C. for 10 s, and 55° C. for 30 s. Primer pairs used are listed in Supplementary Table 1. Gapdh was used as reference gene for normalization. The SDS 2.4 software (Applied Biosystems) was used to compute the threshold cycle (Cq) and the relative expression for an mRNA was assessed using the 2^−ΔCq method.

mouse liver = experiment: ANIT diet liver fibrosis model (Picrosirius red staining, qRT-PCR); conditions: ANIT diet 4 weeks vs control diet
Excerpt: Fibrosis is a universal pathological finding for chronic diseases in any organ(14) and it would be useful to identify biomarkers of fibrosis that are specific for an organ or be able to indicate their origin.
Animals were housed in an Association for Assessment and Accreditation of Laboratory Animal Care International-accredited facility at Michigan State University and all procedures were approved by the Michigan State University Institutional Animal Care and Use Committee.
as §1, §2

[2] = enalapril 200 mg/l in drinking water after FA injection, kidney qRT-PCR vs control

| SMILES | kidney fibrosis development (histological assessment) ([1]; enalapril 200 mg/l continuously in drinking water after FA injection, vs plain water control) | reduction of collagen 1a1 mRNA expression ([1]; enalapril 200 mg/l in drinking water after FA injection, kidney qRT-PCR) | Cdh11 gene expression level [1, 2] | Gabrp gene expression level [1, 2] | Mrc1 gene expression level [1, 2] | Scn7a gene expression level [1, 2] | Smoc2 gene expression level [1, 2] | Mgp gene level (mouse liver) | Scn7a gene level (mouse liver) | Sytl2 gene level (mouse liver) | collagen 1a1 gene expression (mouse liver) |
| --- | --- | --- | --- | --- | --- | --- | --- | --- | --- | --- | --- |
| CCOC(=O)[C@H](CCc1ccccc1)N[C@@H](C)C(=O)N1CCC[C@H]1C(=O)O [enalapril] | reduced kidney fibrosis development | ~3 fold | significant (p<0.05) decreases | significant (p<0.05) decreases | significant (p<0.05) decreases | significant (p<0.05) decreases | significant (p<0.05) decreases | – | – | – | – |
| S=C=Nc1cccc2ccccc12 [ANIT, α-naphthylisothiocyanate] | – | – | – | – | – | – | – | significantly higher (p<0.05) gene levels | significantly higher (p<0.05) gene levels | significantly higher (p<0.05) gene levels | significantly increased collagen 1a1 gene expression |
